According to article PMC5908784, “Extracellular loops 2 and 3 of the calcitonin receptor selectively modify agonist binding and efficacy” (Biochemical Pharmacology, 2018):
Numbering of substitutions follows the chain as printed. Where a SMILES comes first, the peptide text is derived from it. Bridges are numbered along the chain shown (N, C = ends).

Tests used:
Experiment in all cases: Heterologous whole cell competition binding
Conditions in all cases: heterologous competition of 125I-sCT(8-32), whole cells, mean ± S.E.M., SEM
hCTR F359A = biological target: T1, hCTR F359A (Homo sapiens, UniProt P30988, F359A)
T1 construct: expressed in transfected cells
T1 sequence (P30988 25-474 F359A): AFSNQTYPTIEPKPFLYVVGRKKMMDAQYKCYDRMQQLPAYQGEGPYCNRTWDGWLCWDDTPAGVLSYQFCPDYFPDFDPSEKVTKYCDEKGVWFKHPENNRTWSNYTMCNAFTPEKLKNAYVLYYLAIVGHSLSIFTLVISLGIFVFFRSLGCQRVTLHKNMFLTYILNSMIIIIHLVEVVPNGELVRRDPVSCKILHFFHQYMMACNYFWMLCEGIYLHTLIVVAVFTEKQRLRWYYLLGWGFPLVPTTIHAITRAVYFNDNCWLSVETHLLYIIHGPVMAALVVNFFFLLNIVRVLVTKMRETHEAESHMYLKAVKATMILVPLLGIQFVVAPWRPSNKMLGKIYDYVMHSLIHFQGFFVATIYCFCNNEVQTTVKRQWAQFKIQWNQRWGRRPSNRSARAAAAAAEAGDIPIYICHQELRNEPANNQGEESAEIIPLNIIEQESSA
In short: (§1)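 Steps: overnight co-incubation of cells, tracer and test ligand; washout of unbound label; gamma counting; Cheng-Prusoff conversion to pKi.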

hCTR G369A = biological target: T2, hCTR G369A (Homo sapiens, UniProt P30988, G369A)
T2 construct: c-Myc (N); expressed in transfected cells
T2 sequence (P30988 25-474 G369A): T1 sequence (P30988 25-474 F359A) with A335F, G345A
In short: as §1

hCTR M367A = biological target: T3, hCTR M367A (Homo sapiens, UniProt P30988, M367A)
T3 construct: c-Myc (N); expressed in transfected cells
T3 sequence (P30988 25-474 M367A): T1 sequence (P30988 25-474 F359A) with A335F, M343A
In short: as §1

hCTR M376A = biological target: T4, hCTR M376A (Homo sapiens, UniProt P30988, M376A)
T4 construct: c-Myc (N); expressed in transfected cells
T4 sequence (P30988 25-474 M376A): T1 sequence (P30988 25-474 F359A) with A335F, M352A
In short: as §1

hCTR Y374A = biological target: T5, hCTR Y374A (Homo sapiens, UniProt P30988, Y374A)
T5 construct: c-Myc (N); expressed in transfected cells
T5 sequence (P30988 25-474 Y374A): T1 sequence (P30988 25-474 F359A) with A335F, Y350A
In short: as §1

SMILES: CSCC[C@H](NC(=O)CNC(=O)[C@H](CO)NC(=O)[C@H](Cc1ccccc1)NC(=O)[C@H](CCCNC(=N)N)NC(=O)[C@H](Cc1c[nH]cn1)NC(=O)[C@H](Cc1ccccc1)NC(=O)[C@H](CC(N)=O)NC(=O)[C@H](CC(N)=O)NC(=O)[C@H](CC(C)C)NC(=O)[C@H](CC(N)=O)NC(=O)[C@H](CCCNC(=N)N)NC(=O)[C@H](Cc1c[nH]c2ccccc12)NC(=O)[C@H](Cc1ccc(O)cc1)NC(=O)[C@H](C)NC(=O)[C@H](CO)NC(=O)[C@H](CC(C)C)NC(=O)[C@@H](NC(=O)[C@@H]1CSSC[C@H](N)C(=O)N[C@@H](CO)C(=O)N[C@@H](CC(N)=O)C(=O)N[C@@H](CC(C)C)C(=O)N[C@@H](CO)C(=O)N[C@@H]([C@@H](C)O)C(=O)N1)C(C)C)C(=O)NCC(=O)N[C@@H](Cc1ccccc1)C(=O)NCC(=O)N1CCC[C@H]1C(=O)N[C@@H](CCC(=O)O)C(=O)N[C@H](C(=O)N1CCC[C@H]1C(N)=O)[C@@H](C)O [pCT] (H-CSNLSTCVLSAYWRNLNNFHRFSGMGFGPETP-NH2; disulfide 1-7)
- Ki (hCTR F359A): 74.1 nM
- Ki (hCTR G369A): 7.94 nM
- Ki (hCTR M367A): 21.4 nM
- Ki (hCTR M376A): 7.76 nM
- Ki (hCTR Y374A): 5.89 nM
